Reference: patent publication US20100298141A1, “SUBSTITUTED PYRIDINE N-OXIDE HERBICIDES” (E. I. DU PONT DE NEMOURS AND COMPANY, priority 2007, published 2010)

Assays:
wheat = assay: Test A pre-/postemergence greenhouse test; format: in vivo, Triticum aestivum; details: for Plant response rating, Wheat: 0 to 100 scale where 0 is no effect and 100 is complete control; for Wheat plant response rating: 0 to 100 scale
Procedure, shortened: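 Test compounds in non-phytotoxic solvent with surfactant were applied as a preemergence soil spray to seeded loam/sand pots and, concurrently, postemergence to plants at 2–10 cm, one- to two-leaf stage. About ten days in greenhouse, then injury visually rated against untreated controls.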

crabgrass = assay: Test C pre-/postemergence test; format: in vivo, Digitaria sanguinalis
Procedure, shortened: (§1)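 Compounds in a non-phytotoxic solvent with surfactant applied preemergence to seeded pots and, at the same time, postemergence to plants 2–18 cm tall (1- to 4-leaf stage). Paddy tests: pots flooded to 3 cm, compound applied into the water, depth held throughout.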

Goosegrass = assay: Test C pre-/postemergence test; format: in vivo, Eleusin indica
Procedure, shortened: as §1

umbrella sedge = assay: Test C flooded paddy test; format: in vivo, Cyperus difformis; details: Flood
Procedure, shortened: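 Pots were flooded to 3 cm above the soil surface at treatment, compound applied directly to the paddy water, and that depth held throughout. Plants were kept in a greenhouse for 13 to 15 days, then visually rated against untreated controls.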

green foxtail = assay: Test F preemergence test; format: in vivo, Setaria viridis; details: scale 0 to 100
Description: (§2) Seeds of plant species selected from bermudagrass (Cynodon dactylon), Surinam grass (Brachiaria decumbens), large crabgrass (Digitaria sanguinalis), green foxtail (Setaria viridis), goosegrass (Eleusine indica), johnsongrass (Sorghum halepense), kochia (Kochia scoparia), pitted morningglory (Ipomoea lacunosa), purple nutsedge (Cyperus rotundus), common ragweed (Ambrosia elation), mustard (Brassica nigra), guineagrass (Panicum maximum), […] (Paspalum dilatatum), barnyardgrass (Echinochloa crus-galli), southern sandbur (Cenchrus echinatus), common sowthistle (Sonchus oleraceous), prickly […] spinosa), Italian ryegrass (Lolium multiflorum), common purslane (Portulaca oleracea), broadleaf signalgrass (Brachiaria platyphylla), common groundsel (Senecio vulgaris), common chickweed (Stellaria media), Virginia dayflower (Commelina virginica), annual bluegrass (Poa annua), naked crabgrass (Digitaria nuda), […] cochinchinensis), quackgrass (Elytrigia repens), Canada horseweed (Conyza canadensis), field bindweed (Convolvulus arvensis), […] (Bidens bipinnata), common mallow (Malva sylvestris), Russian thistle (Salsola kali), and sugarcane (Saccharum officinarum) were planted and treated preemergence with test chemicals formulated in a non-phytotoxic solvent mixture which included a surfactant. At a different time, sugarcane was treated with postemergence applications of some of the test chemicals formulated in the same manner. Plants were approximately 3- to 4-leaf stage for the postemergence treatments. Treated plants and controls were maintained in a greenhouse for 14 to 21 days, after which time all species were compared to controls and visually evaluated. […] A dash (-) response means no test result.

kochia = assay: Test F preemergence test; format: in vivo, Kochia scoparia; details: scale 0 to 100
Description: as §2

mustard = assay: Test F preemergence test; format: in vivo, Brassica nigra; details: scale 0 to 100
Description: as §2

dallisgrass = assay: Test F preemergence test; format: in vivo, Paspalum dilatatum; details: scale 0 to 100
Description: as §2

common groundsel = assay: Test F preemergence test; format: in vivo, Senecio vulgaris; details: scale 0 to 100
Description: as §2

annual bluegrass = assay: Test F preemergence test; format: in vivo, Poa annua; details: scale 0 to 100
Description: as §2

quackgrass = assay: Test F preemergence test; format: in vivo, Elytrigia repens; details: scale 0 to 100
Description: as §2

[1] = Postemergence, 500 g ai/ha, 0 is no effect, 100 is complete control
[2] = Preemergence, 125 g ai/ha, 0 no effect, 100 complete control
[3] = 62 g ai/ha, Preemergence, scale 0 to 100
[4] = 125 g ai/ha, preemergence, scale 0 (no effect) to 100 (complete control)
[5] = Postemergence, 125 g ai/ha, scale 0 to 100, 0 no effect, 100 complete control
[6] = Postemergence, 250 g ai/ha, scale 0 to 100, 0 no effect, 100 complete control
[7] = Preemergence, 31 g ai/ha, scale 0 to 100 (0 no effect, 100 complete control)
[8] = preemergence, 250 g ai/ha, scale 0 (no effect) to 100 (complete control)
[9] = 62 g ai/ha, scale 0 to 100 (0 no effect, 100 complete control)
[10] = 250 g ai/ha, scale 0 to 100, 0 no effect, 100 complete control, 13 to 15 days

Structure (SMILES): Cn1nc(C(F)(F)C(F)(F)F)c(C[S+]([O-])c2cccc[n+]2[O-])c1OCC(F)(F)F (stereo not shown) [Compound 79]
- Plant response rating, Wheat (wheat; Postemergence, 125 g ai/ha): 50
- Wheat plant response rating (wheat; [1]): 70
- Wheat plant response rating (wheat; [2]): 80
- Plant response rating, Wheat (wheat; Preemergence, 500 g ai/ha): 100
- Crabgrass, Large plant response rating (crabgrass; [3]): 80
- Crabgrass, Large plant response rating (crabgrass; [4]): 100
- Plant response rating (0 to 100), Crabgrass, Large (crabgrass; Postemergence, 31 g ai/ha): 0
- Plant response rating (0 to 100), Crabgrass, Large (crabgrass; Postemergence, 62 g ai/ha): 0
- Plant response rating, Crabgrass, Large (crabgrass; [5]): 0
- Plant response rating, Crabgrass, Large (crabgrass; [6]): 50
- Plant response rating, Crabgrass, Large (crabgrass; [7]): 40
- Crabgrass, Large plant response rating (crabgrass; [8]): 100
- Goosegrass plant response rating (Goosegrass; [3]): 75
- Goosegrass plant response rating (Goosegrass; [4]): 100
- Plant response rating (0 to 100), Goosegrass (Goosegrass; Postemergence, 31 g ai/ha): 0
- Plant response rating (0 to 100), Goosegrass (Goosegrass; Postemergence, 62 g ai/ha): 0
- Plant response rating, Goosegrass (Goosegrass; [5]): 40
- Plant response rating, Goosegrass (Goosegrass; [6]): 50
- Plant response rating, Goosegrass (Goosegrass; [7]): 70
- Goosegrass plant response rating (Goosegrass; [8]): 100
- Plant response rating, Sedge, Umbrella (umbrella sedge; [9]): 90
- Plant response rating, Sedge, Umbrella (umbrella sedge; [10]): 100
- Plant response rating, Foxtail, Green (green foxtail; 16 g ai/ha, preemergence): 20
- Foxtail, Green plant response rating (green foxtail; 62 g ai/ha, Preemergence): 90
- Foxtail, Green plant response rating (green foxtail; 125 g ai/ha, preemergence): 100
- Plant response rating, Foxtail, Green (green foxtail; Preemergence, 31 g ai/ha): 60
- Plant response rating, Kochia (kochia; 16 g ai/ha, preemergence): 50
- Kochia plant response rating (kochia; 62 g ai/ha, Preemergence): 100
- Kochia plant response rating (kochia; 125 g ai/ha, preemergence): 100
- Plant response rating, Kochia (kochia; Preemergence, 31 g ai/ha): 100
- Plant response rating, Black Mustard (mustard; 16 g ai/ha, preemergence): 100
- Black Mustard plant response rating (mustard; 62 g ai/ha, Preemergence): 100
- Black Mustard plant response rating (mustard; 125 g ai/ha, preemergence): 100
- Plant response rating, Black Mustard (mustard; Preemergence, 31 g ai/ha): 100
- Plant response rating, Dallisgrass (dallisgrass; 16 g ai/ha, preemergence): 0
- Dallisgrass plant response rating (dallisgrass; 62 g ai/ha, Preemergence): 90
- Dallisgrass plant response rating (dallisgrass; 125 g ai/ha, preemergence): 100
- Plant response rating, Dallisgrass (dallisgrass; Preemergence, 31 g ai/ha): 40
- Plant response rating, Groundsel (common groundsel; 16 g ai/ha, preemergence): 95
- Groundsel plant response rating (common groundsel; 62 g ai/ha, Preemergence): 95
- Groundsel plant response rating (common groundsel; 125 g ai/ha, preemergence): 100
- Plant response rating, Groundsel (common groundsel; Preemergence, 31 g ai/ha): 95
- Plant response rating, Bluegrass (annual bluegrass; 16 g ai/ha, preemergence): 0
- Bluegrass plant response rating (annual bluegrass; 62 g ai/ha, Preemergence): 90
- Bluegrass plant response rating (annual bluegrass; 125 g ai/ha, preemergence): 100
- Plant response rating, Bluegrass (annual bluegrass; Preemergence, 31 g ai/ha): 0
- Plant response rating, Quackgrass (quackgrass; 16 g ai/ha, preemergence): 0
- Quackgrass plant response rating (quackgrass; 62 g ai/ha, Preemergence): 80
- Quackgrass plant response rating (quackgrass; 125 g ai/ha, preemergence): 95
- Plant response rating, Quackgrass (quackgrass; Preemergence, 31 g ai/ha): 35

Structure (SMILES): CC(Oc1c(CS(=O)(=O)c2cccc[n+]2[O-])c(C(F)(F)F)nn1C)C(F)(F)F (stereo not shown) [Compound 82]
- Plant response rating, Wheat (wheat; Postemergence, 125 g ai/ha): 30
- Wheat plant response rating (wheat; [1]): 60
- Wheat plant response rating (wheat; [2]): 30
- Plant response rating, Wheat (wheat; Preemergence, 500 g ai/ha): 70
- Crabgrass, Large plant response rating (crabgrass; [3]): 85
- Crabgrass, Large plant response rating (crabgrass; [4]): 98
- Plant response rating (0 to 100), Crabgrass, Large (crabgrass; Postemergence, 31 g ai/ha): 0
- Plant response rating (0 to 100), Crabgrass, Large (crabgrass; Postemergence, 62 g ai/ha): 0
- Plant response rating, Crabgrass, Large (crabgrass; [5]): 0
- Plant response rating, Crabgrass, Large (crabgrass; [6]): 10
- Plant response rating, Crabgrass, Large (crabgrass; [7]): 85
- Crabgrass, Large plant response rating (crabgrass; [8]): 100
- Goosegrass plant response rating (Goosegrass; [3]): 100
- Goosegrass plant response rating (Goosegrass; [4]): 100
- Plant response rating (0 to 100), Goosegrass (Goosegrass; Postemergence, 31 g ai/ha): 0
- Plant response rating (0 to 100), Goosegrass (Goosegrass; Postemergence, 62 g ai/ha): 0
- Plant response rating, Goosegrass (Goosegrass; [5]): 10
- Plant response rating, Goosegrass (Goosegrass; [6]): 40
- Plant response rating, Goosegrass (Goosegrass; [7]): 90
- Goosegrass plant response rating (Goosegrass; [8]): 100
- Plant response rating, Sedge, Umbrella (umbrella sedge; [9]): 100
- Plant response rating, Sedge, Umbrella (umbrella sedge; [10]): 100
- Plant response rating, Foxtail, Green (green foxtail; 16 g ai/ha, preemergence): 30
- Foxtail, Green plant response rating (green foxtail; 125 g ai/ha, preemergence): 95
- Plant response rating, Foxtail, Green (green foxtail; Preemergence, 62 g ai/ha): 95
- Plant response rating, Foxtail, Green (green foxtail; Preemergence, 31 g ai/ha): 95
- Plant response rating, Kochia (kochia; 16 g ai/ha, preemergence): 100
- Kochia plant response rating (kochia; 125 g ai/ha, preemergence): 100
- Plant response rating, Kochia (kochia; Preemergence, 62 g ai/ha): 100
- Plant response rating, Kochia (kochia; Preemergence, 31 g ai/ha): 100
- Plant response rating, Black Mustard (mustard; 16 g ai/ha, preemergence): 0
- Black Mustard plant response rating (mustard; 125 g ai/ha, preemergence): 100
- Plant response rating, Black Mustard (mustard; Preemergence, 62 g ai/ha): 50
- Plant response rating, Black Mustard (mustard; Preemergence, 31 g ai/ha): 0
- Plant response rating, Dallisgrass (dallisgrass; 16 g ai/ha, preemergence): 20
- Dallisgrass plant response rating (dallisgrass; 125 g ai/ha, preemergence): 90
- Plant response rating, Dallisgrass (dallisgrass; Preemergence, 62 g ai/ha): 40
- Plant response rating, Dallisgrass (dallisgrass; Preemergence, 31 g ai/ha): 20
- Plant response rating, Groundsel (common groundsel; 16 g ai/ha, preemergence): 0
- Groundsel plant response rating (common groundsel; 125 g ai/ha, preemergence): 90
- Plant response rating, Groundsel (common groundsel; Preemergence, 62 g ai/ha): 30
- Plant response rating, Groundsel (common groundsel; Preemergence, 31 g ai/ha): 0
- Plant response rating, Bluegrass (annual bluegrass; 16 g ai/ha, preemergence): 0
- Bluegrass plant response rating (annual bluegrass; 125 g ai/ha, preemergence): 100
- Plant response rating, Bluegrass (annual bluegrass; Preemergence, 62 g ai/ha): 70
- Plant response rating, Bluegrass (annual bluegrass; Preemergence, 31 g ai/ha): 60
- Plant response rating, Quackgrass (quackgrass; 16 g ai/ha, preemergence): 70
- Quackgrass plant response rating (quackgrass; 125 g ai/ha, preemergence): 100
- Plant response rating, Quackgrass (quackgrass; Preemergence, 62 g ai/ha): 95
- Plant response rating, Quackgrass (quackgrass; Preemergence, 31 g ai/ha): 70
